Laboratory results taken from patent publication US20210299076A1, “AMINO ACID FORMULATIONS AND USES THEREOF” (University of Florida Research Foundation, Incorporated, priority 2012, published 2021).
Several values for one entry are separate records, joined by “and”; a condition that tells them apart may be missing. Identical values can stand only once. Entries after “also recorded” stand apart in the source; their conditions may differ.

Legend:
[1] = system: ileum (HCO3− secretion); test: pH stat HCO3− secretion in ileum; type: cell-based, mouse; conditions: for Effect on lumen Cl−-independent HCO3− secretion stimulated by glucose: 100 μM on lumen side, 6 mM glucose
Method: pH stat studies are performed to determine whether HCO3^− secretion contributes to the unaccounted portion of the Isc. At least two modes of HCO3^− secretion in the mouse small intestine have been identified by the present inventors: 1) Cl^−-dependent, electroneutral Cl^−—HCO3^− exchange, and 2) Cl^−-independent, electrogenic HCO3^− secretion. […] Specifically, HCO3^−-free, poorly buffered solution is added to both sides of the tissues mounted in an Ussing chamber and both sides of the tissues are bubbled with 100% O2. Minimal HCO3^− secretion (0.1±0.01 mEq.h^−1.cm^−2, n=12) is recorded under such conditions. Subsequent addition of HCO3^−-containing buffered solution to the basolateral side and bubbling with 95% O2 and 5% CO2 on that side results in significant HCO3^− secretion 3.8±0.2 mEq.h^−1.cm^−2 (n=9). To determine whether lumen Cl^−-independent HCO3^− secretion plays a role in HCO3^− secretion (in the absence of lumen glucose), pH stat experiments are performed in the absence of lumen Cl^−. In the absence of lumen Cl^−, minimal HCO3^− secretion is recorded (0.4±0.1 pEq.h^−1.cm^−2) (FIG. 5A). […] The HCO3^− secretion in the presence of glucose could be due to a lumen Cl^−-dependent, electroneutral Cl—HCO3^− exchange or a lumen Cl^−-independent anion channel-mediated HCO3^− secretion. To assess the mechanism of glucose-stimulated HCO3^− secretion, glucose is added to the mucosal side.

[2] = system: intracellular cAMP in ileal epithelial cells; test: Colorimetric intracellular cAMP measurement in ileal villus and crypt cells; type: cell-based, mouse; conditions: villus cells
Method: Freshly isolated mucosal scrapings of ileal epithelial cells are washed three times in Ringer's solution containing 1.2 mM Ca^2+ at 37° C. […] Cells are treated with 0.1 M HCl to stop endogenous phosphodiesterase activity. The lysates are then used for cAMP assay using cAMP direct immunoassay kit (Calbiochem, USA). The quantitative assay of cAMP uses a polyclonal antibody to cAMP that binds to cAMP in samples in a competitive manner. After a simultaneous incubation at room temperature, the excess reagents are washed away and substrates are added. After a short incubation time, the reaction is stopped and the yellow color generated is read at 405 nm. The intensity of the color is inversely proportional to the concentration of cAMP in standards and samples. cAMP levels are standardized to protein levels from respective fractions and expressed in pmol (mg protein)^−1. Forskolin treated cells are used as a positive control. Glucose and forskolin treated cells are incubated for 45 minutes. All the assays are performed in triplicate and repeated until n=4 different mice.

[3] = system: Caco-2 cells; test: Confocal Ca2+ fluorescence microscopy (Fluo-8) in Caco-2 cells; type: cell-based
Method: Caco-2 cells are obtained from ATTC and cultured in Dulbecoo's modified Eagle's medium supplemented with 10% fetal calf serum (FCS) and 1% nonessential amino acids at 37° C. and 5% CO2. Caco-2 cells are passaged for 20-25 times and are seeded (2×10^5 cells/dish) on 5 cm petri-dishes and grown until 80% confluence, when the FCS concentration is changed to 5%. Cells are grown for another 10 days before they are used for functional studies.
Caco2 cells grown in 25 mm round coverslips are mounted on the bath chamber RC-21BR attached to series 20 stage adapter (Warner Instruments, CT USA). […] Fluorescence is recorded by argon lasers with excitation at 488 nm and emission at 515 nm. […] Changes are recorded and fluorescence is measured for various cells. […]
To determine the role of intracellular Ca^2+ in glucose-stimulated increase in Isc, intracellular Ca^2+ level is measured in the presence of different concentrations of glucose and 3-OMG, respectively, and in the presence of BAPTA-AM (1,2-bis(o-aminophenoxy)ethane-N,N,N′,N′-tetraacetic acid)—an intracellular calcium-specific chelator. The Ca^2+ responses to glucose and 3-OMG in cultured Caco2 cells loaded with the Ca^2+ indicator fluo 8 are monitored by laser scanning confocal microscopy. […] The mean peak amplitude of calcium fluorescence (F/Fo) with 0.6 mM glucose is calculated to be 1.32±0.1 (n=10).

[4] = target: T1, SGLT1 (Mus musculus, UniProt Q8C3K6); test: Saturation kinetics of Na+-coupled glucose / 3-OMG transport (Isc, Ussing chamber, ileal sheets); type: cell-based
T1 construct: from tissue; host or cells: ileal mucosa of NIH Swiss mice
T1 sequence (Q8C3K6 1-665): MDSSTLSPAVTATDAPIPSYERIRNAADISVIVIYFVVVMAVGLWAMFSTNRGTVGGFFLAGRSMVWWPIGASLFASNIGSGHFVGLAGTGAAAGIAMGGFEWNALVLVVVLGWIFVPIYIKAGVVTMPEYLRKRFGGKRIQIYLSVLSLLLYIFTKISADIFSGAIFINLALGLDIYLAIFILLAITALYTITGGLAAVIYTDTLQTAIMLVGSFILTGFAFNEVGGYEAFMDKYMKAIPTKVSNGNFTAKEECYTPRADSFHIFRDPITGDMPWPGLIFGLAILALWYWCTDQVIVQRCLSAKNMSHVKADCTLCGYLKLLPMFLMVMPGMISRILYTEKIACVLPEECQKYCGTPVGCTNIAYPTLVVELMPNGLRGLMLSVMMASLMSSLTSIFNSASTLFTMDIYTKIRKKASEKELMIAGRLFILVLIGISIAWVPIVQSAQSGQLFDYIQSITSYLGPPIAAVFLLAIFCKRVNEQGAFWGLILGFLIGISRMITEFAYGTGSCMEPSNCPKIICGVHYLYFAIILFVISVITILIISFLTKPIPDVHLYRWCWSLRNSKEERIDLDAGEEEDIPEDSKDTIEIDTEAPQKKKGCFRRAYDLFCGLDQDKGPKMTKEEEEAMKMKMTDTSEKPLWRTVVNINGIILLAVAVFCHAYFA
From the text: (§1) Normally fed, 8-week-old, male NIH Swiss mice are sacrificed by CO2 inhalation, followed by cervical dislocation. The small intestine is gently removed, and the segment is washed and flushed in ice-cold Ringer's solution. Then the mucosa is separated from the serosa and the muscular layers by striping through the submucosal plane as previously described (Zhang et al. (2007) J Physiol 581(3):1221-1233). Following exsanguinations, ileal mucosa is obtained from a 10 cm segment close to the caecum. All experiments are approved by the University of Florida Institutional Animal Care and Use Committee.
(§2) Ion transport studies are performed on ileal sheets. Tissues are then mounted in between the two halves of an Ussing type-Lucite chamber with 0.3 cm^−2 exposed surface areas (P2304, Physiologic Instruments, San Diego, Calif., USA). […] The basal short-circuit current (Isc) and the corresponding conductance (G) are recorded using a computer controlled voltage/current clamp device (VCC MC-8, Physiologic Instruments).
(§3) Tissues paired with similar conductance and current are treated with or without 100 μM H-89 (Santa Cruz Biotechnology, Inc, Santa Cruz, Calif.), an irreversible protein kinase A (PKA) inhibitor. […] Saturation kinetic constant is calculated for the corresponding Km and Vmax for treated and untreated tissues. […]

[5] = system: mouse ileum; test: Bio-electric measurement of short-circuit current (Isc) in ileal sheets, Ussing chamber; type: cell-based; conditions: for Effect on glucose- or 3-OMG-stimulated increase in Isc: tissues pre-treated with H-89
From the text: as §1
Ion transport studies are performed on ileal sheets. Tissues are then mounted in between the two halves of an Ussing type-Lucite chamber with 0.3 cm^−2 exposed surface areas (P2304, Physiologic Instruments, San Diego, Calif., USA). Regular Ringer's solution (115 mM NaCl, 25 mM NaHCO3, 4.8 mM K2HPO4, 2.4 mM KH2PO4, 1.2 mM MgCl2 and 1.2 mM CaCl2) bubbled with 95% O2: 5% CO2 is used bilaterally as bathing solution for the tissues and the temperature is maintained constant at 37° C. The chambers are balanced to eliminate osmotic and hydrostatic forces. Resistance due to fluid is also compensated. The tissues are allowed to stabilize. The basal short-circuit current (Isc) and the corresponding conductance (G) are recorded using a computer controlled voltage/current clamp device (VCC MC-8, Physiologic Instruments).
Tissues paired with similar conductance and current are treated with or without 100 μM H-89 (Santa Cruz Biotechnology, Inc, Santa Cruz, Calif.), an irreversible protein kinase A (PKA) inhibitor. The tissues are incubated with H-89 for 30 minutes. Increasing concentrations of glucose (0.015-8 mM) are added every 5 minutes and the peak current is noted. Saturation kinetic constant is calculated for the corresponding Km and Vmax for treated and untreated tissues.
To investigate whether inhibition of glucose transport abolishes PKA-sensitive current, experiments are conducted using phlorizin (Santa Cruz Biotechnology, Inc, Santa Cruz, Calif., USA), a reversible competitive inhibitor of SGLT1. Specifically, ileal tissues mounted in Ussing chamber are treated with 100 μM phlorizin on the lumen side and glucose saturation kinetic studies are conducted.

[6] = substrate: CO[C@@H]([C@H](O)[C@H](O)CO)[C@@H](O)C=O; test: Saturation kinetics of Na+-coupled glucose / 3-OMG transport (Isc, Ussing chamber, ileal sheets); type: cell-based, mouse; conditions: 37.0 °C
From the text: as §1, §2, §3

[7] = FIG. 5B, lumen Cl− present, 100 μM DIDS, 10 μM NPPB

O=S(=O)(O)c1cc(N=C=S)ccc1C=Cc1ccc(N=C=S)cc1S(=O)(=O)O [DIDS, 4,4′-diisothiocyano-2,2′-stilbenedisulfonic acid]
Effect on HCO3− secretion in the absence of glucose [1, 7]: abolishes HCO3^− secretion

CO[C@@H]([C@H](O)[C@H](O)CO)[C@@H](O)C=O [Formulation 3-OMG, 3-O-methylglucose]
HCO3− secretion ([1]; 6 mM 3-OMG, absence of lumen and bath HCO3−): 0.1±0.03 μEq.h^−1.cm^−2 | Intracellular cAMP level compared to 6 mM glucose ([2]; 3-OMG 6 mM, P<0.01): significantly higher | Intracellular cAMP level ([2]; 3-OMG 0.6 and 6 mM, 45 minutes): significant increase | Mean peak amplitude of calcium fluorescence (F/Fo) ([3]; 0.6 mM in bath medium, n=10): 1.2±0.1 and 1.2±0.2 | Mean peak amplitude of calcium fluorescence (F/Fo) ([3]; 6 mM in bathing medium): 1.5±0.1 | Vmax ([4]; Table 1, no PKA inhibitor, n = 8 tissues): 2.7 ± 0.1 | Vmax ([4]; Table 1, with H-89, n = 8 tissues): 1.4 ± 0.1

O=S(=O)(NCCNC/C=C/c1ccc(Br)cc1)c1cccc2cnccc12 [Formulation H-89]
Effect on glucose- or 3-OMG-stimulated increase in Isc [5]: significant decrease in Isc | Effect on glucose- or 3-OMG-stimulated increase in Isc ([5]; listed as H89): significant reduction

COc1ccc(Cl)cc1C(=O)NCCc1ccc(S(=O)(=O)NC(=O)NC2CCCCC2)cc1 [Glibenclamide, glibenclamide]
Effect on lumen Cl−-independent HCO3− secretion stimulated by glucose [1]: inhibits

O=C(O)c1cc([N+](=O)[O-])ccc1NCCCc1ccccc1 [NPPB, 5-nitro-2-(3-phenylpropylamino)-benzoic acid]
Effect on lumen Cl−-independent HCO3− secretion stimulated by glucose [1]: inhibits | Effect on HCO3− secretion in the absence of glucose [1, 7]: does not have any inhibitory effect | Effect on HCO3− secretion in the presence of 6 mM glucose [1, 7]: inhibits

N=C(N)NC(=O)c1nc(Cl)c(N)nc1N [amiloride]
Effect on Isc ([5]; 10 μM on mucosal side of small intestine): no effect

O=C(CCc1ccc(O)cc1)c1c(O)cc(O)cc1O[C@@H]1O[C@H](CO)[C@@H](O)[C@H](O)[C@H]1O [phlorizin]
Effect on glucose- and/or 3-OMG-stimulated increase in Isc ([5]; 100 μM phlorizin on lumen side): no response; also recorded: completely abolished

B1: SGLT1 (Mus musculus) (protein)
chain: MDSSTLSPAVTATDAPIPSYERIRNAADISVIVIYFVVVMAVGLWAMFSTNRGTVGGFFLAGRSMVWWPIGASLFASNIGSGHFVGLAGTGAAAGIAMGGFEWNALVLVVVLGWIFVPIYIKAGVVTMPEYLRKRFGGKRIQIYLSVLSLLLYIFTKISADIFSGAIFINLALGLDIYLAIFILLAITALYTITGGLAAVIYTDTLQTAIMLVGSFILTGFAFNEVGGYEAFMDKYMKAIPTKVSNGNFTAKEECYTPRADSFHIFRDPITGDMPWPGLIFGLAILALWYWCTDQVIVQRCLSAKNMSHVKADCTLCGYLKLLPMFLMVMPGMISRILYTEKIACVLPEECQKYCGTPVGCTNIAYPTLVVELMPNGLRGLMLSVMMASLMSSLTSIFNSASTLFTMDIYTKIRKKASEKELMIAGRLFILVLIGISIAWVPIVQSAQSGQLFDYIQSITSYLGPPIAAVFLLAIFCKRVNEQGAFWGLILGFLIGISRMITEFAYGTGSCMEPSNCPKIICGVHYLYFAIILFVISVITILIISFLTKPIPDVHLYRWCWSLRNSKEERIDLDAGEEEDIPEDSKDTIEIDTEAPQKKKGCFRRAYDLFCGLDQDKGPKMTKEEEEAMKMKMTDTSEKPLWRTVVNINGIILLAVAVFCHAYFA
notes: Ion transport studies are performed on ileal sheets; from tissue; host or cells: ileal mucosa of NIH Swiss mice
Km ([6]; other: Table 1, no PKA inhibitor, n = 8 tissues): 200 µM | Km ([6]; other: increasing lumen concentrations up to 8 mM, 140 mM Na+, no inhibitor): 220 ± 70 µM
